{"source": "patent US20040014648A1", "about": "“Methods for the prevention and/or the treatment of neurological disorders” (FAUST PHARMACEUTICALS, priority 2002, published 2004)", "key": {"[1]": {"tested_on": "primary cultures of neurons, isolated from the rat brain cortex", "assay": "Neuroprotection assay: Ionomycin-evoked neuron cell death (LDH release)", "assay_type": "cell-based", "conditions": "FIG. 4", "experimental": "(§1) Primary cortical neuron cultures.\nAssessment of neuron cell death.\nThe neurons were treated in vitro with 5 μM of Ionomycin (Sigma), a calcium ionophore, in presence of 10 μM of 1-Naphthol, in absence or in presence of 5 or 10 μM of 3-methylcholanthrene (3-MC, Aldrich), an UGT inducer which allows the in situ glucuronidation of 1-Naphthol."}, "[2]": {"tested_on": "primary cultures of neurons isolated from the rat brain cortex", "assay": "Glutamate level determination (chemiluminescent enzymatic assay)", "assay_type": "cell-based", "conditions": "FIG. 5", "experimental": "as §1\nAssessment of glutamate release. Glutamate released by neurons in culture was evaluated in aliquots of the supernatants by means of a chemiluminescent enzymatic assay (Israel et al., Neurochem Int. 1993 Jan. 22(1):53-8).\nThe glutamate released by neurons was followed by an enzymatic assay coupled to a chemiluminescent reaction. […]"}, "[3]": {"tested_on": "primary cultures of neurons, isolated from the rat brain cortex", "conditions": "3-NP 400 μM, 24 hours; compound at 0.1, 1 and 5 μM; FIG. 2"}}}
{"smiles": "Oc1cccc2ccccc12", "note": "[1-Naphthol]", "values": [{"measurement": "protective effect with in situ glucuronidation by 3-MC", "setting": "[1]; Ionomycin 5 μM, compound at 10 μM plus 3-MC 5 or 10 μM", "value": "reinforces, dose dependently, the protective effect"}, {"measurement": "protection of neurons from Ionomycin-evoked cell death", "setting": "[1]; Ionomycin 5 μM, compound at 10 μM", "value": "protects neurons from Ionomycin-evoked cell death"}, {"measurement": "glutamate release by neurons", "setting": "[2]; compound at 1 μM and 10 μM (lanes 4, 7)", "value": "at both concentrations reduces the release of glutamate"}, {"measurement": "glutamate release with glucuronidation by 3-MC", "setting": "[2]; compound at 10 μM plus 3-MC 1 or 5 μM", "value": "reinforces, dose dependently, the decrease of glutamate"}, {"measurement": "glutamate release by neurons", "setting": "[2]; compound at 10 μM", "value": "reduces glutamate release"}, {"measurement": "significance of the improved decrease of glutamate with 3-Methylcholanthrene", "setting": "[2]; compound at 1 or 10 μM plus 3-Methylcholanthrene 5 μM (lanes 6, 9)", "value": "statistically significant at the highest dose of 3-Methylcholanthrene"}]}
{"smiles": "CN1C(=O)CN=C(c2ccccc2)c2cc(Cl)ccc21", "note": "[Diazepam]", "values": [{"measurement": "protection of neurons from 3-NP-evoked cell death", "setting": "[3]", "value": "protects neurons from 3-NP at all tested doses"}]}
{"smiles": "Cc1ccc2cc3c(ccc4ccccc43)c3c2c1CC3", "note": "[3-Methylcholanthrene, 3-methylcholanthrene, reference compound]", "values": [{"measurement": "protective effect against the toxicity induced by Ionomycin", "setting": "[1]; Ionomycin 5 μM, compound alone at 5 or 10 μM (lanes 5, 6)", "value": "no protective effect against the toxicity induced by Ionomycin"}, {"measurement": "effect on the natural death of neurons", "setting": "[1]; compound alone at 5 or 10 μM, no Ionomycin (lanes 2, 3)", "value": "no effect on the natural death of neurons"}, {"measurement": "glutamate release by neurons", "setting": "[2]; compound alone at 5 μM (lane 3)", "value": "have no effect on glutamate release"}]}
